# What was measured:
# hPSC-parasymNs = assay: MEA neural activity of hPSC-parasymNs; format: cell-based, human; details: for parasymN activity (relative MFR: mean firing rate): 1 μM vs control, day 30 hPSC-parasymNs
# Description: (§2) For neural activity measurements, day 16 SCPs were plated on PO/LM/FN coated MEA plates (Axion BioSystems, BioCircuit or CytoView) at 100×10^3 cells/cm^2. […] Activity of differentiated parasymNs or CMs/SMCs on desired timepoints was measured using a MEA plate reader (Axion BioSystems, Maestro Pro) under the neural detection mode or cardiac detection mode, respectively, according to manufacturer's instruction.
# mouse salivary cell = assay: Calcium imaging of parasymN and mouse salivary cell coculture; format: cell-based; details: coculture with parasymN; nicotine stimulation
# Excerpt: FIG. 14B is a plot showing calcium imaging for salivary cell only upon nicotine stimulation.
# hPSC-CMs = details: nicotine 1 μM; co-culture with hPSC-parasymNs; MEA
# Description: CM differentiation. […] Briefly, 80-90% confluent H9 ESCs were replated at a 1 to 5 ratio on Matrigel (Corning, 1:20)-coated plates. When cells reached 90% confluency, medium was changed to CDBM base medium, that contains DMEM/F12 (Gibco, 11320033), 64 mg/L ascorbic acid, 13.6 μg/L sodium selenium (Sigma, S5261), 10 μg/ml transferrin (Sigma, T3309) and Chemically Defined Lipid Concentrate (Gibco, 11905031). 5 μM CHIR99021 was added to CDBM medium on day 0. 0.6 U/ml heparin ([sequence] Technologies, 07980) was added to CDBM medium on day 1, 5, 6. 0.6 U/ml heparin and 3 μM XAV were added to CDBM medium on day 2, 3, 4. After day 7, medium was changed to CM maintenance medium that contains CDBM base, 20 μg/ml insulin (Sigma, 1-034), and 2% FBS. CMs were replated on day 10 using accutase at 200×10^3 cells/cm^2 on Matrigel-coated plates. […]
# as §2
# [1] = tested on: 3T3-L1-derived white adipocytes; assay: Lipolysis assay, white adipocytes with or without parasymN co-culture; format: cell-based, mouse
# Description: To begin with, adipocyte culture medium was replaced with prewarmed lipolysis medium containing 0.5% BSA in DMEM, and cells were incubated for 4 hours at 37° C. After 4 hours, the lipolysis medium was replaced with fresh prewarmed lipolysis medium with test drugs and incubate for 90 minutes at 37° C. Then, the cell culture medium was collected for the assay or stored at −20° C. for long-term storage. Glycerol release in adipocyte cultured medium was measured using Adipolysis Assay Kit (Cayman, 10009381) according to manufacturer's instruction.
# To test whether adipose functions can be regulated by parasymN activity, the lipolytic activity was compared.
# [2] = tested on: non-neural contaminating cell types; assay: Purification of non-neural contaminating cells in parasymN differentiation; format: cell-based, human; details: AraC added during the differentiation
# Description: FIG. 13A illustrates that cell cycle inhibitor AraC was added during the differentiation.
# [3] = tested on: 3T3-L1-derived white adipocytes; assay: Lipolysis assay, 3T3-L1-derived white adipocytes alone; format: cell-based, mouse; details: 10 μM isoproterenol; differentiated adipocytes alone
# Description: 3T3-L1 were seeded at 20×10^3 cells/cm^2 and fed until 80% confluency, which was defined as day 0. From day 0-3, cells were fed with the differentiation medium containing DMEM (Gibco, 11965118), 10% FBS, 0.5 mM IBMX (Cayman, 13347), 1 μM dexamethasone (Sigma, D2915), and 10 μg/ml insulin (Sigma, 19278). From day 3-6, cells were fed with post-differentiation medium containing DMEM, 10% FBS, and 10 μg/ml insulin. After day 6, cells were maintained in DMEM with 10% FBS until the desired timepoints. To begin with, adipocyte culture medium was replaced with prewarmed lipolysis medium containing 0.5% BSA in DMEM, and cells were incubated for 4 hours at 37° C. After 4 hours, the lipolysis medium was replaced with fresh prewarmed lipolysis medium with test drugs and incubate for 90 minutes at 37° C. […] Glycerol release in adipocyte cultured medium was measured using Adipolysis Assay Kit (Cayman, 10009381) according to manufacturer's instruction.
# parasymN = assay: 6-OHDA toxicity in parasymN (microscopy); format: cell-based, human; details: parasymN after 6-OHDA
# Description: (§1) Cells were fixed by 4% paraformaldehyde for 20 minutes and washed twice by PBS. Fixed cells were permeabilized by 0.3% Triton, 1% BSA and 3% goat or donkey serum in 1× PBS for 20 minutes, and incubated with primary antibodies overnight at 4° C. The next day, cells were washed and incubated with secondary antibodies for one hour at room temperature. Lastly, cells were washed and incubated with DAPI (Sigma, D9542, 1:1000) for 15 minutes at room temperature. Fluorescent images were taken using the Lionheart FX Automated Microscope.
# hPSC-symNs = assay: MEA neural activity of hPSC-symNs; format: cell-based, human; details: 6-OHDA 100 μM, normalized to vehicle
# Description: as §2
# symN = assay: 6-OHDA toxicity in symN (western blot, immunostaining, microscopy); format: cell-based, human
# Description: Day 30 parasymNs and symNs on 6-well plates were prepared for sample collection. One well for each sample. Cells were washed by PBS and scraped after incubating with lysis buffer contains RIPA buffer (Sigma-Aldrich, R0278, 1×), PMSF protease inhibitor (Thermo Fisher Scientific, 36978, 1 mM) and PhosSTOP phosphatase inhibitor (Sigma-Aldrich, 4906845001). Protein concentration was measured using Bradford reagent (Bio-Rad, 5000006). Proteins were loaded as 20 μg/well and ran in 12% acrylamide gel. After the transfer, nitrocellulose membranes were blocked by 5% skim milk in TBST.
# Membranes were incubated with primary antibodies overnight at 4° C. The next day, membranes were washed by PBST and incubated with secondary antibodies for one hour at room temperature. Images were taken using the iBright western blot imager (Invitrogen, FL1500).
# as §1
molecule,measurement,setting,value
CN1[C@@H]2CC[C@H]1C[C@@H](OC(=O)C(CO)c1ccccc1)C2 (stereo partly shown) [atropine],parasymN activity (relative MFR: mean firing rate),hPSC-parasymNs; MEA,inactivated
CN1CCCC1c1cccnc1 (stereo not shown) [nicotine],parasymN activity (relative MFR: mean firing rate),hPSC-parasymNs; MEA,further inducible
same,salivary cell activity (calcium imaging),mouse salivary cell,increased
same,beating of hPSC-CMs (relative beats/min),hPSC-CMs,decreased
same,lipolysis levels (glycerol release),"[1]; 1 μM nicotine, adipocytes only or parasymN co-cultured",remained unchanged
"angiotensin II (DRVYIHPF; Angiotensin-2; UniProt P01019 25-32, looked up) [Ang II, angiotensin II of the renin-angiotensin-aldosterone system]",parasymN activity (fold change of MFR),"hPSC-parasymNs; angiotensin II vs control (DMSO), MEA",decreased
Nc1ccn([C@@H]2O[C@H](CO)[C@@H](O)[C@@H]2O)c(=O)n1 [AraC],contaminating cells by immunostaining,[2],reduced
"CC(C[N+](C)(C)C)OC(N)=O (stereo not shown) [BeCh, bethanechol]",parasymN activity (relative MFR: mean firing rate),hPSC-parasymNs; MEA,activated
CC(C)NCC(O)c1ccc(O)c(O)c1 (stereo not shown) [isoproterenol],lipolytic activity (glycerol release),[3],displayed lipolytic activity
same,lipolytic levels induced by isoproterenol (normalized glycerol release),"[1]; 10 μM isoproterenol, adipocytes co-cultured with parasymNs",counteracted
NCCc1cc(O)c(O)cc1O [6-OHDA],relative MFR over 12 hours after 6-OHDA,"hPSC-parasymNs; 6-OHDA 100 μM, hPSC-parasymNs, normalized to vehicle",remained unaffected
same,neural morphology by microscopy,parasymN,almost intact
same,relative MFR over 12 hours after 6-OHDA,hPSC-symNs,displayed early hyperactivity
same,"cell death markers PUMA/c-Cas3, western blot",symN; 12 hours after treating parasymN/symN with 6-OHDA,increased only in symN
same,"cell death marker c-Cas3, percentage of cells by immunostaining",symN; 24 hours after treating parasymN/symN with 6-OHDA,increased only in symN
same,neural morphology by microscopy,symN; symN after 6-OHDA,damaged neural morphology

# Reference: US20240150709A1, “COMPOSITIONS AND METHODS FOR MAKING PARASYMPATHETIC NEURONS” (University of Georgia Research Foundation, Inc., priority 2022, published 2024)
